Measured values taken from ChEMBL document CHEMBL4715789, “Identification of a Potential Antimalarial Drug Candidate from a Series of 2-Aminopyrazines by Optimization of Aqueous Solubility and Potency across the Parasite Life Cycle” (J Med Chem, 2016).
Converted amounts (≈) assume the structure as drawn.

What was measured:
[1] = Aqueous solubility of compound in pH 2 0.01M HCl incubated for 2 hrs under shaking condition by shake-flask method based HPLC-DAD analysis; type: physicochemical
[2] = Aqueous solubility of compound in pH 6.5 PBS incubated for 2 hrs under shaking condition by shake-flask method based HPLC-DAD analysis; type: physicochemical
[3] = Metabolic stability in human liver microsomes assessed as compound remaining at 0.1 uM measured after 30 mins in presence of cofactor NADPH by LC-MS/MS analysis; type: ADME, Microsome; settings: read-out: Stabilty
[4] = Metabolic stability in rat liver microsomes assessed as compound remaining at 0.1 uM measured after 30 mins in presence of cofactor NADPH by LC-MS/MS analysis; type: ADME, Microsome; settings: read-out: Stabilty
[5] = Metabolic stability in mouse liver microsomes assessed as compound remaining at 0.1 uM measured after 30 mins in presence of cofactor NADPH by LC-MS/MS analysis; type: ADME, Microsome; settings: read-out: Stabilty
[6] = tested on: Plasmodium berghei; test: Antiplasmodial activity against Plasmodium berghei ANKA infected in NMRI mouse assessed as reduction in parasitemia at 3 mg/kg, po qd for 4 consecutive days measured at day 7 post infection by flow cytometry analysis; type: functional; set-up: scale not given: the % may be the effect or the level left; settings: time 4 day
[7] = tested on: Plasmodium berghei; test: Antiplasmodial activity against Plasmodium berghei ANKA infected in NMRI mouse model assessed as mean survival days at 3 mg/kg, po qd for 4 consecutive day; type: functional; settings: time 4 day
[8] = AUC(app) in NMRI mouse plasma infected with Plasmodium berghei ANKA at 3 mg/kg, po qd for 4 consecutive days and measured post last dose; type: ADME, organism-based; settings: time 4 day
[9] = Cmax(app) in NMRI mouse plasma infected with Plasmodium berghei ANKA at 3 mg/kg, po qd for 4 consecutive days and measured post last dose; type: ADME, organism-based; settings: time 4 day
[10] = Apparent average plasma concentration in NMRI mouse plasma infected with Plasmodium berghei ANKA at 3 mg/kg, po qd for 4 consecutive days and measured post last dose; type: ADME, organism-based; settings: in vivo, 96 h, time 4 day
[11] = tested on: Plasmodium falciparum; test: microbe, parasite or virus in culture; settings: NF54, Erythrocyte
Description: Antiplasmodial activity against multidrug-sensitive Plasmodium falciparum NF54 infected in human erythrocytes assessed as reduction in [3H]hypoxanthine incorporation preincubated for 48 hrs followed by [3H]hypoxanthine addition and measured after 24 hrs by liquid scintillation counting method

[12] = tested on: Plasmodium falciparum; test: microbe, parasite or virus in culture; settings: K1, Erythrocyte
Description: Antiplasmodial activity against multidrug-resistant Plasmodium falciparum K1 infected in erythrocytes assessed as reduction in [3H]hypoxanthine incorporation preincubated for 48 hrs followed by [3H]hypoxanthine addition and measured after 24 hrs by liquid scintillation counting method

[13] = target: Voltage-gated inwardly rectifying potassium channel KCNH2 (Homo sapiens, UniProt Q12809); test: Inhibition of human ERG by IonWorks patch clamp electrophysiology method
[14] = tested on: Plasmodium berghei; test: Antiplasmodial activity against Plasmodium berghei ANKA infected in NMRI mouse model assessed as mean survival days at 10 mg/kg, po qd for 4 consecutive day; type: functional; settings: time 4 day

Voltage-gated inwardly rectifying potassium channel KCNH2, sequence (Q12809 whole entry): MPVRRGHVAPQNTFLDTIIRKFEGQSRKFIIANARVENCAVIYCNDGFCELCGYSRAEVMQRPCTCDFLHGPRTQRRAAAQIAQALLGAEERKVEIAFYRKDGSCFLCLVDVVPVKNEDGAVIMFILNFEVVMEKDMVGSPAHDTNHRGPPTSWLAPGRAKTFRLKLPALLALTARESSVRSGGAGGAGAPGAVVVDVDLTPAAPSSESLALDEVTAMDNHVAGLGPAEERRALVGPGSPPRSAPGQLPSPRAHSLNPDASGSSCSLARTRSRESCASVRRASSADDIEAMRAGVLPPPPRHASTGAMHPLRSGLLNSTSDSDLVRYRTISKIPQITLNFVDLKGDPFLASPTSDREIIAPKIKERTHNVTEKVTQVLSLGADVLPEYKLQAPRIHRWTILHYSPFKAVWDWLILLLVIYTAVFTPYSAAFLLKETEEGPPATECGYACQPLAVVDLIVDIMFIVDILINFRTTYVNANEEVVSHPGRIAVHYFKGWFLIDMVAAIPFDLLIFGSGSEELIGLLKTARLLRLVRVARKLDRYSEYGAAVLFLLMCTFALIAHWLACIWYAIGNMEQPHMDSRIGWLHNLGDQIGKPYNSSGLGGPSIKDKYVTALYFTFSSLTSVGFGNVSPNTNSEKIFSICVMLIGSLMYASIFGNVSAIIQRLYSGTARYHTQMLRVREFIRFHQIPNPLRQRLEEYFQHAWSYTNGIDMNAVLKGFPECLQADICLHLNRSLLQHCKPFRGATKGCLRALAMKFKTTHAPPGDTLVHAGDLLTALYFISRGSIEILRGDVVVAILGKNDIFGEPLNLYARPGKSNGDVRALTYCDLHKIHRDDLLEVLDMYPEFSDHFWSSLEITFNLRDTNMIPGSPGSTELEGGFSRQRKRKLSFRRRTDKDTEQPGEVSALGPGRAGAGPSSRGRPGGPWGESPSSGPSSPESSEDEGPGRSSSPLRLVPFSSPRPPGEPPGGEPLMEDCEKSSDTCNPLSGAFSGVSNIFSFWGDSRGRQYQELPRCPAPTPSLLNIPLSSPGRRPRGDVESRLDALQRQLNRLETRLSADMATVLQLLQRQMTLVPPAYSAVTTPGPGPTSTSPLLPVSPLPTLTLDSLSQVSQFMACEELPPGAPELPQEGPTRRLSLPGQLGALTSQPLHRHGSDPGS

| SMILES | solubility thermodynamic at 2 h [1] | solubility thermodynamic at 2 h [2] | remaining at 0.5 h, 0.1 µM [3] | remaining at 0.5 h, 0.1 µM [4] | remaining at 0.5 h, 0.1 µM [5] | Activity [6] | MSD [7] | AUC at 96 h [8] | Cmax [9] | Cave [10] | IC50 [11] | IC50 [12] | IC50 [13] | MSD [14] |
| --- | --- | --- | --- | --- | --- | --- | --- | --- | --- | --- | --- | --- | --- | --- |
| Nc1ncc(-c2ccc(C(=O)N3CCC(O)C3)cc2)nc1-c1ccc(C(F)(F)F)cc1 (stereo unspecified) | 129 µM (≈ 55.3 µg/mL) | 77 µM (≈ 33 µg/mL) | > 90% | > 90% | > 90% | 99.6% | 8 days | 34.7 µM·h | 3610 nM | 2060 nM | 9.6 nM | 6.8 nM |  |  |
| Nc1ncc(-c2ccc(C(=O)N3CCC(N)CC3)cc2)nc1-c1ccc(C(F)(F)F)cc1 | 200 µM (≈ 88.3 µg/mL) | 88 µM (≈ 38.8 µg/mL) |  |  |  | 65% | 7 days |  |  |  | 10 nM | 7.5 nM |  |  |
| CC(C)(C)N1CCN(C(=O)c2ccc(-c3cnc(N)c(-c4ccc(C(F)(F)F)cc4)n3)cc2)CC1 | 200 µM (≈ 96.7 µg/mL) | 95 µM (≈ 45.9 µg/mL) |  |  |  |  |  |  |  |  | 17 nM | 11 nM | 2000 nM |  |
| CN1CCCN(C(=O)c2ccc(-c3cnc(N)c(-c4ccc(C(F)(F)F)nc4)n3)cc2)CC1 | 200 µM (≈ 91.3 µg/mL) | 85 µM (≈ 38.8 µg/mL) | > 90% | > 90% | > 90% |  | 12 days |  |  |  | 15 nM | 9.9 nM |  |  |
| Nc1ncc(-c2ccc(C(F)(F)F)nc2)nc1-c1ccc(C(F)(F)F)nc1 |  |  | > 90% | > 90% | > 90% |  |  |  |  |  |  |  |  |  |
| CC(C)(C)N1CCN(C(=O)c2ccc(-c3cnc(N)c(-c4ccc(C(F)(F)F)nc4)n3)cc2)CC1 | 200 µM (≈ 96.9 µg/mL) | 113 µM (≈ 54.8 µg/mL) |  |  |  | 88% | 14 days | 4.34 µM·h | 1520 nM | 570 nM | 8.9 nM | 6.4 nM |  |  |
| Nc1ccc(-c2cnc(N)c(-c3ccc(C(F)(F)F)nc3)n2)cn1 | 199 µM (≈ 66.1 µg/mL) | 34 µM (≈ 11.3 µg/mL) | > 90% | > 90% | > 90% |  |  |  |  |  |  |  |  |  |
| Nc1ccc(-c2nc(-c3ccc(S(=O)(=O)C4CC4)cc3)cnc2N)cn1 | 212 µM (≈ 77.9 µg/mL) | 13 µM (≈ 4.78 µg/mL) | > 90% | > 90% | > 90% |  |  |  |  |  | 38 nM | 44 nM |  |  |
| Nc1ncc(-c2ccc(C(=O)N3CCCNCC3)cc2)nc1-c1ccc(C(F)(F)F)nc1 | 200 µM (≈ 88.5 µg/mL) | 146 µM (≈ 64.6 µg/mL) |  |  |  | 55% | 7 days |  |  |  | 12.7 nM | 10.2 nM |  |  |
| Nc1ncc(-c2ccc(C(=O)N3CCNCC3)cc2)nc1-c1ccc(C(F)(F)F)nc1 | 200 µM (≈ 85.7 µg/mL) | 198 µM (≈ 84.8 µg/mL) | > 90% | > 90% | > 90% | <40% |  |  |  |  | 9.1 nM | 7.7 nM |  |  |
| CN1CCN(C(=O)c2ccc(-c3cnc(N)c(-c4ccc(C(F)(F)F)nc4)n3)cc2)CC1 | 200 µM (≈ 88.5 µg/mL) | 182 µM (≈ 80.5 µg/mL) | > 90% | > 90% | > 90% | 81% | 7 days |  |  |  | 9.9 nM | 9.9 nM |  | 8 days |
| CN1CCN(C(=O)c2ccc(-c3cnc(N)c(-c4ccc(C(F)(F)F)cc4)n3)cc2)CC1 |  |  | > 90% | > 90% | > 90% |  | 12 days |  | 1600 nM |  | 7.9 nM | 6.8 nM |  | 26 days |
| Nc1ccc(-c2nc(-c3ccc(C(=O)N4CCNCC4)cc3)cnc2N)cn1 | 189 µM (≈ 71 µg/mL) | 186 µM (≈ 69.8 µg/mL) |  |  |  |  |  |  |  |  | 51 nM | 37 nM |  |  |
| NC(=O)c1ccc(-c2cnc(N)c(-c3ccc(C(F)(F)F)nc3)n2)cc1 | < 5 µM | < 5 µM | > 90% | > 90% | > 90% |  | 7.7 days | 69.3 µM·h | 5000 nM | 2900 nM | 20 nM | 16 nM |  | 14 days |
| N#Cc1ccc(-c2cnc(N)c(-c3ccc(C(F)(F)F)nc3)n2)nc1 |  |  |  |  |  |  |  |  |  |  | 2710 nM |  |  |  |
| NC(=O)c1ccc(-c2cnc(N)c(-c3ccc(C(N)=O)cc3)n2)cc1 |  |  |  |  |  |  |  |  |  |  | 25 nM | 21 nM |  |  |
